Data as given in ChEMBL document CHEMBL4270597, “Donepezil-butylated hydroxytoluene (BHT) hybrids as Anti-Alzheimer's disease agents with cholinergic, antioxidant, and neuroprotective properties” (Eur J Med Chem, 2018).
pIC50, pKi: −log10 of the molar value. Activity calls are given as the source filed them. No cut-off for these calls is given here.

Legend:
[1] = test system: PC-12; assay: Cytotoxicity against rat PC12 cells assessed as decrease in cell viability at 20 uM after 24 hrs by MTT assay; assay type: cell-based; settings: pc-12, 24 h
[2] = Antioxidant activity assessed as DPPH radical scavenging activity measured after 30 mins incubation in dark by UV-Visible spectrophotometric analysis; assay type: functional
[3] = molecular target: T1, Acetylcholinesterase (Homo sapiens, UniProt P22303); assay: Inhibition of human erythrocyte AChE using acetylthiocholine chloride as substrate incubated for 5 mins followed by substrate addition measured after 180 secs by Ellman's method
[4] = Antioxidant activity assessed as trolox equivalent of AAPH-induced radical scavenging activity preincubated for 15 mins followed by AAPH addition measured every minute for 120 mins by ORAC-FL based fluorescein assay; assay type: functional
[5] = organism: Homo sapiens; assay: Selectivity index, ratio of IC50 for human serum BuChE to IC50 for human erythrocyte AChE
[6] = molecular target: T2, Cholinesterase (Homo sapiens, UniProt P06276); assay: Inhibition of human serum BuChE using butyrylthiocholine iodide as substrate incubated for 5 mins followed by substrate addition measured after 180 secs by Ellman's method; settings: read-out: IC50
[7] = test system: PC-12; assay: Cytotoxicity against rat PC12 cells assessed as decrease in cell viability at 30 uM after 24 hrs by MTT assay; assay type: cell-based; settings: pc-12, 24 h
[8] = molecular target: Cholinesterase (Equus caballus, UniProt P81908); assay: Inhibition of equine serum BuChE using butyrylthiocholine iodide as substrate incubated for 5 mins followed by substrate addition measured after 180 secs by Ellman's method
[9] = Antioxidant activity assessed as ABTS radical cation scavenging activity by measuring trolox equivalent antioxidant capacity measured at 6 mins; assay type: functional
[10] = molecular target: Acetylcholinesterase (Electrophorus electricus, UniProt O42275); assay: Inhibition of electric eel AChE using acetylthiocholine chloride as substrate incubated for 5 mins followed by substrate addition measured after 180 secs by Ellman's method
[11] = molecular target: T3, Amine oxidase [flavin-containing] A (Homo sapiens, UniProt P21397); assay: Inhibition of human MAO-A at 100 uM using p-tyramine as substrate incubated for 15 mins followed by substrate addition measured for 20 mins by fluorescence assay relative to control
T3 sequence (P21397 whole entry): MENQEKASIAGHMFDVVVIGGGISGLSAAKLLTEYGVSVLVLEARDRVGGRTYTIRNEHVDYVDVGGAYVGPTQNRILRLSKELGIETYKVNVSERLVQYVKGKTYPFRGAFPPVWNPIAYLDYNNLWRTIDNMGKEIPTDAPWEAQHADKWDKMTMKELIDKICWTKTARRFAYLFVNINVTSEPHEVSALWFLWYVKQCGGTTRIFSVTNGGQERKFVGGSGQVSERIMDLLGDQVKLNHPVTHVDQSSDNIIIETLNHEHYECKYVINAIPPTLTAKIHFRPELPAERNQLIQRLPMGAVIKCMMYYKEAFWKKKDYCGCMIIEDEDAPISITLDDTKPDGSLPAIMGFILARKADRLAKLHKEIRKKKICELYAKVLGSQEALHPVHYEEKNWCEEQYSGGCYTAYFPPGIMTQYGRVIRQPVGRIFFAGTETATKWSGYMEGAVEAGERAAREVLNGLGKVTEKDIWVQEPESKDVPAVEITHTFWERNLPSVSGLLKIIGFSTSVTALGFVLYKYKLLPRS

[12] = molecular target: T2, Cholinesterase; assay: Inhibition of human serum BuChE at 100 uM using butyrylthiocholine iodide as substrate incubated for 5 mins followed by substrate addition measured after 180 secs by Ellman's method relative to control
[13] = Antioxidant activity assessed as DPPH radical scavenging activity at 100 uM measured after 30 mins incubation in dark by UV-Visible spectrophotometric analysis relative to control; assay type: functional
[14] = molecular target: T4, Amine oxidase [flavin-containing] B (Homo sapiens, UniProt P27338); assay: Inhibition of human MAO-B using p-tyramine as substrate incubated for 15 mins followed by substrate addition measured for 20 mins by fluorescence assay
T4 sequence (P27338 whole entry): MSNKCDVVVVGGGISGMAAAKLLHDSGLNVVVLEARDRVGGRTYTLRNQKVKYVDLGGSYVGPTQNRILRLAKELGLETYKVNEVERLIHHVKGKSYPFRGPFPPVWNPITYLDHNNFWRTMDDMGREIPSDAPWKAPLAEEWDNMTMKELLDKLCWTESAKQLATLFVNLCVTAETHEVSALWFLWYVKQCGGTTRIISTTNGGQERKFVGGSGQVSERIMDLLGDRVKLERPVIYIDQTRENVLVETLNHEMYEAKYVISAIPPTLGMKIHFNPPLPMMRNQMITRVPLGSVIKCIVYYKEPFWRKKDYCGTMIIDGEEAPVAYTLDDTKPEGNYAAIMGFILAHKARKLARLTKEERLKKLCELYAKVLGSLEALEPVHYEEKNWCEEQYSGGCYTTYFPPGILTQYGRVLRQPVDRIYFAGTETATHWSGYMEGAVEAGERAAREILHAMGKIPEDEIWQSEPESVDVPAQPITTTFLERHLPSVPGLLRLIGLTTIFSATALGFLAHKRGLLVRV

[15] = molecular target: T1, Acetylcholinesterase; assay: Inhibition of human erythrocyte AChE at 100 uM using acetylthiocholine chloride as substrate incubated for 5 mins followed by substrate addition measured after 180 secs by Ellman's method relative to control
[16] = molecular target: Cholinesterase (Equus caballus) (UniProt P81908); assay: Inhibition of equine serum BuChE at 100 uM using butyrylthiocholine iodide as substrate incubated for 5 mins followed by substrate addition measured after 180 secs by Ellman's method relative to control
[17] = molecular target: Acetylcholinesterase (Electrophorus electricus) (UniProt O42275); assay: Inhibition of electric eel AChE at 100 uM using acetylthiocholine chloride as substrate incubated for 5 mins followed by substrate addition measured after 180 secs by Ellman's method relative to control
[18] = molecular target: T4, Amine oxidase [flavin-containing] B; assay: Inhibition of human MAO-B at 100 uM using p-tyramine as substrate incubated for 15 mins followed by substrate addition measured for 20 mins by fluorescence assay relative to control
[19] = molecular target: T3, Amine oxidase [flavin-containing] A; assay: Inhibition of human MAO-A using p-tyramine as substrate incubated for 15 mins followed by substrate addition measured for 20 mins by fluorescence assay
[20] = Half life in Sprague-Dawley rat liver microsomes in presence of NADPH by UPLC/MS analysis
[21] = test system: BV-2; assay: Antineuroinflammatory activity in mouse BV2 cells assessed as inhibition of LPS-induced NO production at 10 to 30 uM after 24 hrs by Griess assay; assay type: functional, cell-based
[22] = test system: Mus musculus; assay: Reversal of scopolamine-induced memory impairment in ICR mouse assessed as increase in step-through latency time at 5 mg/kg, po administered for 10 consecutive days and 60 mins prior to training trial followed by scopolamine challenge at 30 mins post dose measured 24 hrs after training trial by passive avoidance test; assay type: functional, organism-based
[23] = test system: PC-12; assay: Neuroprotective activity against H2O2-induced oxidative stress in rat PC12 cells assessed as increase in cell viability pretreated for 4 hrs followed by H2O2 challenge measured after 24 hrs by MTT assay; assay type: functional, cell-based
[24] = molecular target: Amyloid-beta precursor protein (Homo sapiens) (UniProt P05067); assay: Inhibition of AChE-induced amyloid beta 40 (unknown origin) aggregation at 100 uM by thioflavin-T fluorescence assay relative to control
[25] = molecular target: Amyloid-beta precursor protein (Homo sapiens) (UniProt P05067); assay: Inhibition of self-induced amyloid beta 42 (unknown origin) aggregation at 20 uM incubated for 46 to 48 hrs by thioflavin-T fluorescence assay relative to control
[26] = molecular target: T1, Acetylcholinesterase; assay: Mixed-type inhibition of human AChE using acetylthiocholine chloride as substrate incubated for 5 mins followed by substrate addition by Lineweaver-Burk plot analysis

T2 sequence (P06276 whole entry): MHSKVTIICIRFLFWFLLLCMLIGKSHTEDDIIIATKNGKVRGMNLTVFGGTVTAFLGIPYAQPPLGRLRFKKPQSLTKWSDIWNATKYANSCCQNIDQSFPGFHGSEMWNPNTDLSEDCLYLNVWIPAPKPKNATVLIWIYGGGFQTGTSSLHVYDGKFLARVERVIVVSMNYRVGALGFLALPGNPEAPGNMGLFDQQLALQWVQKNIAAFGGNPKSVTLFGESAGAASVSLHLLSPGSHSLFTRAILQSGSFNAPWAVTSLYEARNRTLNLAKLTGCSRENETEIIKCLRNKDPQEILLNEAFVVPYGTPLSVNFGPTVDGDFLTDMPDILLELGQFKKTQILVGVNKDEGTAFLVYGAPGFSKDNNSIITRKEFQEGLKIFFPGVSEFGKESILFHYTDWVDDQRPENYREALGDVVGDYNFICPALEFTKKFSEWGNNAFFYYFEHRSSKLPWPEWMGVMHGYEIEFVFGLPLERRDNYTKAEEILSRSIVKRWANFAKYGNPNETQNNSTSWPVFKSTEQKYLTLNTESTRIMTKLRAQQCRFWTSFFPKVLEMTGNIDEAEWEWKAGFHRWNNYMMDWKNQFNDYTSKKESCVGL
Acetylcholinesterase (Electrophorus electricus, UniProt O42275), sequence (O42275 whole entry): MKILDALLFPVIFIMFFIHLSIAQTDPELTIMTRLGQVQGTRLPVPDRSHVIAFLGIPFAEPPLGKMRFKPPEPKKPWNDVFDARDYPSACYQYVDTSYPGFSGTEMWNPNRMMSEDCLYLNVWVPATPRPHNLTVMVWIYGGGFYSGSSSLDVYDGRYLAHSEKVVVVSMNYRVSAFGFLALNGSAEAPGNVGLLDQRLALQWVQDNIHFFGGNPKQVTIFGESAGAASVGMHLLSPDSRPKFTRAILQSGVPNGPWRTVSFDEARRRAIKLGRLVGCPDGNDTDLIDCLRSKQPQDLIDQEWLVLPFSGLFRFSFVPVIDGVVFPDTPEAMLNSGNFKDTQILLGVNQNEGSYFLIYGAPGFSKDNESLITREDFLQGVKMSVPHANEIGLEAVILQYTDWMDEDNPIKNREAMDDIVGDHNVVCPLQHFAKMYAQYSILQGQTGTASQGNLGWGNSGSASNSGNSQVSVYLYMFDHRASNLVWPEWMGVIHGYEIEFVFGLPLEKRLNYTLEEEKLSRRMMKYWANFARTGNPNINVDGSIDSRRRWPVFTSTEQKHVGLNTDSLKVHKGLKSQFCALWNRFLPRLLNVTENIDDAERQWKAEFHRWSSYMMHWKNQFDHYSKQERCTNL
T1 sequence (P22303 whole entry): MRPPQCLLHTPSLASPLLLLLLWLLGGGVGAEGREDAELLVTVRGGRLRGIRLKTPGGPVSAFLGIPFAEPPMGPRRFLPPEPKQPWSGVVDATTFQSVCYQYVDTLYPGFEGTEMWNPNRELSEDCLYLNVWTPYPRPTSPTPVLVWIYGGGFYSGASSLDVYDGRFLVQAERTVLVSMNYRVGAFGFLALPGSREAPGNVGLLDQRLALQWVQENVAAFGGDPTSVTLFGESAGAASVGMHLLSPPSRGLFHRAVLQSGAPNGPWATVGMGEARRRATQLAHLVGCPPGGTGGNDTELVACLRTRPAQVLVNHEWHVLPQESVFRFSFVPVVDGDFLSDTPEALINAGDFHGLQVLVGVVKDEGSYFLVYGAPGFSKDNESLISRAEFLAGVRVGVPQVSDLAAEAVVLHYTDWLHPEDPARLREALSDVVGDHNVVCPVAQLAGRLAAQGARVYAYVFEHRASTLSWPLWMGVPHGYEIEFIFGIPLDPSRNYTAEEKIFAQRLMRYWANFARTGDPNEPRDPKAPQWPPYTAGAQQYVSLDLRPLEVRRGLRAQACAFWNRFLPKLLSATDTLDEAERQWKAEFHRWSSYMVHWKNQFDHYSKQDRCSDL
Cholinesterase (Equus caballus, UniProt P81908), sequence (P81908 whole entry): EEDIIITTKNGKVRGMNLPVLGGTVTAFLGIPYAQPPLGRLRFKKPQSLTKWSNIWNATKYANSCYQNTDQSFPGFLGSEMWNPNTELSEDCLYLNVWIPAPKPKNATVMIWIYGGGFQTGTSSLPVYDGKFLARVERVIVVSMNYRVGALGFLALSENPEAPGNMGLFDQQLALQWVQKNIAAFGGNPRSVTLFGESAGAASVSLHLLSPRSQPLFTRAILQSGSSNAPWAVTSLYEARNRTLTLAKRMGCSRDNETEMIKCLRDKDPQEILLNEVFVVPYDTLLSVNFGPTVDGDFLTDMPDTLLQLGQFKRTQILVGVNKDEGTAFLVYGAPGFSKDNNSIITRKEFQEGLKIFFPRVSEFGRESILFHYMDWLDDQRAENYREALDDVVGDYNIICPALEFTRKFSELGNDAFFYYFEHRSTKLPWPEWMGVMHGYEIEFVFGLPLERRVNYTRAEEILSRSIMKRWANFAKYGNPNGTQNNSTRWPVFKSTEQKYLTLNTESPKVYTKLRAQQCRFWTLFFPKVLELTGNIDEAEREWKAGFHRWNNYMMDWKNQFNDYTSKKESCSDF
Cholinesterase (Equus caballus), sequence (P81908 whole entry): as above
Acetylcholinesterase (Electrophorus electricus), sequence (O42275 24-633 limits assumed): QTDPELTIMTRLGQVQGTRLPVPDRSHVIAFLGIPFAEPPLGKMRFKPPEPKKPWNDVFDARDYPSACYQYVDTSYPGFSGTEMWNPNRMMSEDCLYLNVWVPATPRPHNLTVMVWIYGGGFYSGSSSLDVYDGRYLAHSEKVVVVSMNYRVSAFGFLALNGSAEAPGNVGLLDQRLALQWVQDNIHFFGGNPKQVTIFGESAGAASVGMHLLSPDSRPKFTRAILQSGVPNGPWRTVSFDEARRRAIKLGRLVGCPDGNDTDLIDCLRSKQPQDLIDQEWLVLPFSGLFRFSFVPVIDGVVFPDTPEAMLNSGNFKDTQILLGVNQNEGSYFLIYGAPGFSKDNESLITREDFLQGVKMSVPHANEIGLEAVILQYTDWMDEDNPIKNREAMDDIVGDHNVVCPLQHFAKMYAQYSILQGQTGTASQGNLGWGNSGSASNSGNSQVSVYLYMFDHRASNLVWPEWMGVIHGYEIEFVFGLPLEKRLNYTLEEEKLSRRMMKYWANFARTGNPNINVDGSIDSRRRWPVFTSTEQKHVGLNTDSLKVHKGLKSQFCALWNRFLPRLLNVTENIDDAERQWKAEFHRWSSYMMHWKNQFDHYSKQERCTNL
Amyloid-beta precursor protein (Homo sapiens), sequence (P05067 whole entry): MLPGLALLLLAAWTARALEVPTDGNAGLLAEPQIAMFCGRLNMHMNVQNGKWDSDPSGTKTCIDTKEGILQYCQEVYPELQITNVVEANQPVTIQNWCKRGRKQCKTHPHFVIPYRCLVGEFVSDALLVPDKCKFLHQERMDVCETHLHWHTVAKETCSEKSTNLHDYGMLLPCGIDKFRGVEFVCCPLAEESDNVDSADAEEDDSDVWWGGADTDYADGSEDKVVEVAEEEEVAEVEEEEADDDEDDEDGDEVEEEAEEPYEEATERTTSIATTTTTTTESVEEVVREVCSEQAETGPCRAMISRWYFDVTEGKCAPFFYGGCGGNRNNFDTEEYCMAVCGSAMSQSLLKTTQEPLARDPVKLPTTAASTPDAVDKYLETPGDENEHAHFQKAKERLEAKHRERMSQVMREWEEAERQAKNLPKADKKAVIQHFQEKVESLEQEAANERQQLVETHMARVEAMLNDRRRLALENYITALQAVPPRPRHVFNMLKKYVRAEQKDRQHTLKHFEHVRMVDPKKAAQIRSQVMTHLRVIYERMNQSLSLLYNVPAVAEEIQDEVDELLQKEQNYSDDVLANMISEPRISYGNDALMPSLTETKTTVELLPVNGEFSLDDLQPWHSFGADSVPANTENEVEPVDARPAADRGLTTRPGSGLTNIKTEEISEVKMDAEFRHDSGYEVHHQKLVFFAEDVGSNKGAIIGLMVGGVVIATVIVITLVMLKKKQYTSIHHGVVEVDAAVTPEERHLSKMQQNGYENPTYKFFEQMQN

Row | SMILES | Activity [1] | pIC50 [2] | pIC50 [3] | Activity (mmolequiv/mmol) [4] | Ratio IC50 [5] | pIC50 [6] | Activity [7] | pIC50 [8] | Activity (mmolequiv/mmol) [9] | pIC50 [10] | inhibition at 100 µM [11] [%] | inhibition [12] [%] | Activity [13] [%] | pIC50 [14] | inhibition [15] [%] | inhibition [16] [%] | pIC50 [19] | further results
1 | O=C(/C=C/c1ccc(O)cc1)NCCC1CCN(Cc2ccccc2)CC1 | Non-Toxic | 4.14 | 5.60 | 1.81 | 0.49 | 5.91 | Toxic | 5.90 | 0.55 | 6.09 |  |  |  |  |  |  |  | 
2 | CC(C)(C)c1cc(C(=O)NC2CCN(Cc3ccccc3)CC2)cc(C(C)(C)C)c1O |  |  |  | 1.53 |  |  |  |  | 0.74 | 4.25 | 49.2 | 19.6 | 47.4 | 4.07 | 20.1 | 34.6 |  | 
3 | CC(C)(C)c1cc(CCC(=O)NCC2CCN(Cc3ccccc3)CC2)cc(C(C)(C)C)c1O |  | 4.20 |  | 0.97 |  |  |  |  | 0.63 |  | 38.4 | 14 |  | 4.05 | 12.6 | 14.6 |  | inhibition [17]: 27.4%
4 | CC(C)(C)c1cc(C(=O)NCC2CCN(Cc3ccccc3)CC2)cc(C(C)(C)C)c1O |  |  |  | 1.47 |  |  |  |  | 0.65 |  | 15.8 | 23.1 | 48.2 |  | 15.7 | 8.61 |  | inhibition at 100 µM [18]: 16.1%; inhibition [17]: 38.1%
5 | CC(C)(C)c1cc(C(=O)CNCC2CCN(Cc3ccccc3)CC2)cc(C(C)(C)C)c1O |  |  | 5.61 | 0.36 | 4 | 5.02 |  | 5.27 | 0.28 | 5.19 |  |  | 24.2 |  |  |  | 4.38 | inhibition at 100 µM [18]: 42%
6 | COc1cc2c(cc1OC)C(=O)C(CC1CCN(Cc3ccccc3)CC1)C2 (stereo unspecified) [DONEPEZIL] |  |  |  |  |  |  |  |  |  |  |  |  |  |  |  |  |  | half-life ([20]; microsomes): 1.21 h; inhibition [21]: inactive; Activity [22]: Active
7 | CC(C)(C)c1cc(/C=C/C(=O)NCCC2CCN(Cc3ccccc3)CC2)cc(C(C)(C)C)c1O | Non-Toxic | 4.09 | 5.65 | 1.52 | 38 | 4.07 | Toxic |  | 0.91 | 6.28 |  |  |  | 5.07 |  | 48 | 4.21 | Activity [23]: Dose-dependent effect; inhibition [24]: 38.4%; inhibition [25]: 43.5 to 56.7%; pKi [26]: 5.49
8 | CC(C)(C)c1cc(C(=O)CNCCC2CCN(Cc3ccccc3)CC2)cc(C(C)(C)C)c1O |  |  | 5.86 | 0.31 | 14 | 4.71 |  | 4.31 | 0.27 | 5.61 |  |  | 26.7 | 4.04 |  |  | 4.02 | 
9 | C[C@]12CC[C@H]3[C@@H](CCC4=CC(=O)CC[C@@]43C)[C@@H]1CC[C@@H]2O [TESTOSTERONE] |  |  |  |  |  |  |  |  |  |  |  |  |  |  |  |  |  | half-life ([20]; liver microsomes): < 0.0833 h
10 | O=C(/C=C/c1ccccc1)NCCC1CCN(Cc2ccccc2)CC1 | Non-Toxic | < 3.70 | 6.35 | 0.72 | 3.7 | 5.78 | Toxic |  | 0.31 | 6.26 |  |  |  |  |  |  |  | 
